Results taken from ChEMBL document CHEMBL5154763, “Discovery of 3H-pyrrolo[2,3-c]quinolines with activity against Mycobacterium tuberculosis by allosteric inhibition of the glutamate-5-kinase enzyme” (Eur J Med Chem, 2022).
≈ marks a conversion by molar mass, not a printed value. Calls of active or inactive are those of the source. The rule behind the calls is not given here.

What was measured:
[1] = Cytotoxicity against human HepG2 cells assessed as inhibition of cell growth at 5 uM measured after 48 hrs by MTT assay relative to control; type: toxicity, cell-based
[2] = system: Mycobacterium tuberculosis; test: Antitubercular activity against Mycobacterium tuberculosis H37Rv assessed as inhibition of bacterial growth measured after 8 days by Alamar blue assay; type: functional; settings: 192 h, time 8 day
[3] = Cytotoxicity against human HepG2 cells assessed as inhibition of cell growth at 10 uM measured after 48 hrs by MTT assay relative to control; type: toxicity, cell-based
[4] = Cytotoxicity against human HepG2 cells assessed as inhibition of cell growth at 20 uM measured after 48 hrs by MTT assay relative to control; type: toxicity, cell-based
[5] = target: T1, Glutamate 5-kinase (Escherichia coli) (UniProt P0A7B5); test: Allosteric inhibition of Escherichia coli G5K assessed as decrease in apparent Vmax for ATP using L-Glu and ATP as substate at 120 uM by NADH-coupled assay; settings: filed as negative allosteric modulator
T1 sequence (whole entry): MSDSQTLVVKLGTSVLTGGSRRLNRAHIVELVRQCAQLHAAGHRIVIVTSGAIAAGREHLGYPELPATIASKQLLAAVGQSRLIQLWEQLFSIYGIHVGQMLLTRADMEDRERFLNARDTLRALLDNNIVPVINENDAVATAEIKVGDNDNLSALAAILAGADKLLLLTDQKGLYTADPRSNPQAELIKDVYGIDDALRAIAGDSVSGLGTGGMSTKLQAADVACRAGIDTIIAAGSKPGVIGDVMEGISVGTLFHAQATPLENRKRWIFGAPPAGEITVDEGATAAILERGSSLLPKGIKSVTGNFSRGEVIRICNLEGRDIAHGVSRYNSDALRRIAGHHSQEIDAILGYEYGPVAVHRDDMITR

[6] = target: T1, Glutamate 5-kinase (Escherichia coli); test: Allosteric inhibition of Escherichia coli G5K using 10 mM L-Glu and 10 mM ATP as substate by NADH-coupled assay; settings: filed as negative allosteric modulator
[7] = target: T1, Glutamate 5-kinase (Escherichia coli); test: Allosteric inhibition of Escherichia coli G5K using 150 mM L-Glu and 10 mM ATP as substate by NADH-coupled assay relative to control; settings: filed as negative allosteric modulator
Acetylcholinesterase = Acetylcholinesterase (Electrophorus electricus, UniProt O42275); test: Inhibition of electric eel AChE using acetylthiocholine iodide as substrate by spectrophotometric analysis
Sequence of Acetylcholinesterase (O42275 whole entry): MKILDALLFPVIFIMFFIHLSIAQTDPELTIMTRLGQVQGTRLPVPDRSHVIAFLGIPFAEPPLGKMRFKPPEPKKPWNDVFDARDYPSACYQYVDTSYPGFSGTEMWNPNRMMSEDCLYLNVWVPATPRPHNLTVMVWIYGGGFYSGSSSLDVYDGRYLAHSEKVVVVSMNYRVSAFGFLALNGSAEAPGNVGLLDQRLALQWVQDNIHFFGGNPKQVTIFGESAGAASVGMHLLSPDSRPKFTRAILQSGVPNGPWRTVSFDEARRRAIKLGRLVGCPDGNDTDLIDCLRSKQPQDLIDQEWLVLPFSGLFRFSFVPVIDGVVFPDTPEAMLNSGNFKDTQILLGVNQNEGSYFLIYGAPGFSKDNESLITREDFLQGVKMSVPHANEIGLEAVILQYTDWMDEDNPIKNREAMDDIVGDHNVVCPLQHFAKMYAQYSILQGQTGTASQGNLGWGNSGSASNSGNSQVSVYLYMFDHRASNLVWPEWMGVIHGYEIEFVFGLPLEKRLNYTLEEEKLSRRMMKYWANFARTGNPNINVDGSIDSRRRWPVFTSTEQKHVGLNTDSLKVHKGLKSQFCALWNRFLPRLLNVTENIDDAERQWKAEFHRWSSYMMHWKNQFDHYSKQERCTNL

[8] = target: T1, Glutamate 5-kinase (Escherichia coli); test: Allosteric inhibition of Escherichia coli G5K assessed as increase in apparent Km for ATP using L-Glu and ATP as substate at 120 uM by NADH-coupled assay; settings: filed as negative allosteric modulator
[9] = target: T1, Glutamate 5-kinase (Escherichia coli); test: Allosteric inhibition of Escherichia coli G5K assessed as enzyme residual activity using 150 mM L-Glu and 10 mM ATP as substate by NADH-coupled assay relative to control
[10] = target: T1, Glutamate 5-kinase (Escherichia coli); test: Allosteric inhibition of Escherichia coli G5K assessed as enzyme residual activity using 150 mM L-Glu and 2.2 to 8.4 mM ATP as substate by NADH-coupled assay relative to control
[11] = system: Mycobacterium tuberculosis; test: Antitubercular activity against Mycobacterium tuberculosis H37Rv assessed as inhibition of bacterial growth; type: functional
Plasmodium falciparum [12] = test: Antiplasmodial activity against chloroquine-resistant Plasmodium falciparum Dd2; type: functional, organism-based
Plasmodium falciparum [13] = test: Antiplasmodial activity against chloroquine-sensitive Plasmodium falciparum 3D7; type: functional, organism-based

Row | Structure (SMILES) | MIC [2] [µM] | other results
1 | Fc1ccc2c(c1)nc(-c1ccc(Cl)cc1)c1[nH]ccc12 | 4.2 (≈ 1.25 µg/mL) | inhibition at 48 h, 5 µM [1]: 1%; inhibition at 48 h, 10 µM [3]: 1%; inhibition at 48 h, 20 µM [4]: 2%; inhibition [5]: Active; I0.5 [6]: 33 µM; inhibition [7]: 40%
2 | Cc1ccc2c(c1)nc(-c1ccc(Cl)cc1)c1c2ccn1C | 16.3 (≈ 5 µg/mL) | 
3 | CCCCCCCCc1nc2cc(F)ccc2c2cc[nH]c12 | 16.8 (≈ 5.01 µg/mL) | 
4 | O=C(O)[C@@H]1CCCN1 |  | I0.5 [6]: 2.5 µM; inhibition [7]: 100%
5 | c1ccc(Cc2nc3ccccc3c3cc[nH]c23)cc1 [MARINOQUINOLINE C] |  | IC50 (Acetylcholinesterase): 3.6 µM
6 | COc1ccc2c(c1)nc(CCc1ccccc1)c1[nH]ccc12 | 4.1 (≈ 1.24 µg/mL) | inhibition at 48 h, 5 µM [1]: 1%; inhibition at 48 h, 10 µM [3]: 3%; inhibition at 48 h, 20 µM [4]: 17%; inhibition [8]: Active; Activity [9]: 68%; I0.5 [6]: 22.1 µM; Activity [10]: 66%
7 | Fc1ccc2c(c1)nc(-c1ccc(Cl)cc1)c1c2ccn1CC1CC1 | 14.2 (≈ 4.98 µg/mL) | 
8 | Cc1ccc2c(c1)nc(-c1ccc(Cl)cc1)c1[nH]ccc12 | 8.5 (≈ 2.49 µg/mL) | 
9 | Cc1nc2ccccc2c2cc[nH]c12 [MARINOQUINOLINE A] |  | IC50 (Acetylcholinesterase): 3.6 µM
10 | Clc1ccc(-c2nc3cc(Cl)ccc3c3cc[nH]c23)cc1 | 16 (≈ 5.01 µg/mL) | 
11 | FC(F)(F)c1ccc2c(c1)nc(-c1ccc(Cl)cc1)c1[nH]ccc12 | 14.4 (≈ 4.99 µg/mL) | 
12 | COC(=O)c1ccc2c(c1)nc(-c1ccc(Cl)cc1)c1[nH]ccc12 | > 500 | 
13 | COc1ccc2c(c1)nc(CCc1ccccc1)c1c2ccn1C | 7.9 (≈ 2.5 µg/mL) | 
14 | CC(C)(C)OC(=O)Nc1ccc(-c2nc3ccccc3c3[nH]c4ccccc4c23)cc1 |  | MIC [11]: 6.1 µM (≈ 2.5 µg/mL)
15 | CC(C)Cc1nc2ccccc2c2cc[nH]c12 | 22.6 (≈ 5.07 µg/mL) | IC50 (Acetylcholinesterase): 3.6 µM
16 | O=C(c1c[nH]c2ccccc12)c1nc2ccccc2c2cc[nH]c12 [MARINOQUINOLINE F] |  | IC50 (Acetylcholinesterase): 3.6 µM
17 | c1ccc(-c2ccc(-c3nc4ccccc4c4cc[nH]c34)cc2)cc1 | 31.2 (≈ 10 µg/mL) | 
18 | Cn1ccc2c3ccccc3nc(-c3ccc(Cl)cc3)c21 | 17.1 (≈ 5.01 µg/mL) | 

Row | Structure (SMILES) | MIC [2] [µM] | other results
19 | COc1c(N2C[C@@H]3CCCN[C@@H]3C2)c(F)cc2c(=O)c(C(=O)O)cn(C3CC3)c12 [MOXIFLOXACIN] | 0.15 (≈ 0.0602 µg/mL) | 
20 | Fc1cccc(-c2c[nH]c3c(-c4ccc(Cl)cc4)nc4ccccc4c23)c1 | 26.8 (≈ 9.99 µg/mL) | 
21 | Clc1ccc(-c2nc3ccccc3c3c(Br)c[nH]c23)cc1 | 14 (≈ 5.01 µg/mL) | 
22 | Fc1ccc2c(c1)nc(CCc1ccccc1)c1[nH]ccc12 | 34.4 (≈ 9.99 µg/mL) | 
23 | Oc1ccc(Cc2nc3ccccc3c3cc[nH]c23)cc1 [MARINOQUINOLINE D] |  | IC50 (Acetylcholinesterase): 3.6 µM
24 | COc1ccc2c(c1)nc(Cc1ccccc1)c1[nH]ccc12 | 34.7 (≈ 10 µg/mL) | 
25 | c1ccc2c(c1)nc(-c1c[nH]c3ccccc13)c1[nH]ccc12 [MARINOQUINOLINE E] |  | IC50 (Acetylcholinesterase): 3.6 µM
26 | CCCCCCCCc1nc2cc(C)ccc2c2cc[nH]c12 | 17 (≈ 5.01 µg/mL) | 
27 | CCCCCCCCc1nc2ccccc2c2cc[nH]c12 | 17.8 (≈ 4.99 µg/mL) | 
28 | Nc1ncnc2c1ncn2Cc1nc2ccccc2c2cc[nH]c12 |  | IC50 (Plasmodium falciparum [12]): 1.65 µM; IC50 (Plasmodium falciparum [13]): 1.47 µM
29 | Clc1ccc(-c2nc3ccccc3c3c(Cl)c[nH]c23)cc1 | 16 (≈ 5.01 µg/mL) | 
30 | Clc1ccc(-c2nc3ccccc3c3cc[nH]c23)cc1 | 17.9 (≈ 4.99 µg/mL) | 
31 | Cc1ccc2c(c1)nc(C1CC1)c1[nH]ccc12 | 45 (≈ 10 µg/mL) | 
32 | c1ccc2c(c1)nc(-c1ccc(N3CCCC3)cc1)c1c3ncccc3[nH]c21 |  | MIC [11]: 13.7 µM (≈ 4.99 µg/mL)
33 | c1ccc2c(c1)nc(C1CC1)c1[nH]ccc12 | 24 (≈ 5 µg/mL) | 
34 | CCCCCCCCc1nc2cc(OC)ccc2c2cc[nH]c12 | 16.1 (≈ 5 µg/mL) | 
35 | c1ccc(CCc2nc3ccccc3c3cc[nH]c23)cc1 | 36.7 (≈ 10 µg/mL) | 
